The subject of series [1] is Bcr/Abl fusion protein (Homo sapiens), P00519+P11274 [T315I]. The following applies: BaF3.
The target of series [2] is Bcr/Abl fusion protein (Homo sapiens) (UniProt P00519+P11274). The following applies: BaF3.
Description: Inhibition of wild type BCR/ABL (unknown origin) transfected in mouse BAF3 cells assessed as growth inhibition after 72 hrs by CCK8 assay
The nature of series [3]: Antiproliferative activity in mouse BAF3 cells after 72 hrs by CCK8 assay. The format is cell-based. On the technique in general: Tetrazolium assays rely on reduction of a dye to a coloured formazan, in cell work by metabolically active cells.
Another series has as its system OCI-AML2. Put plainly: Antiproliferative activity in human OCI-AML2 cells after 72 hrs by CCK8 assay. The following applies: OCI-AML2, 72 h. The format is functional.
Series [4] can be described thus: Antiproliferative activity in CHO cells after 72 hrs by CCK8 assay. The format is cell-based, Cricetulus griseus. The following applies: chinese hamster.
Another series relates to KU812 cell line. Kind of series: Antiproliferative activity in human KU812 cells after 72 hrs by CCK8 assay. In kind it is functional. The following applies: KU812, 72 h.
A further series has as its system U-937. Put plainly: Antiproliferative activity in human U937 cells after 72 hrs by CCK8 assay. In kind it is functional. The following applies: U-937, 72 h.
Another series has as its system MEC1. Kind of series: Antiproliferative activity in human MEC1 cells after 72 hrs by CCK8 assay. The format is functional. The note with it: MEC1, 72 h.
The test system of the next series is K562. Kind of series: Antiproliferative activity in human K562 cells after 72 hrs by CCK8 assay. The format is functional. The following applies: K562, 72 h.
Another series has as its system BaF3. Put plainly: Antitumor activity against mouse BAF3 cells expressing BCR/ABL T315I mutant allografted in nu/nu mouse assessed as tumor weight at 100 mg/kg, po administered via gavage measured for 14 days (reference value: 2.78 g). The format is functional.
The next series deals with HL-60. Put plainly: Antiproliferative activity in human HL60 cells after 72 hrs by CCK8 assay. In kind it is functional. The following applies: HL-60, 72 h.
A further series relates to MEG-01. Kind of series: Antiproliferative activity in human MEG01 cells after 72 hrs by CCK8 assay. The format is functional. The note with it: MEG-01, 72 h.
The nature of series [5]: Selectivity ratio of GI50 for mouse BAF3 cells to GI50 for BCR/ABL T315I mutant (unknown origin) transfected in mouse BAF3 cells.
Series [6] can be described thus: Selectivity ratio of GI50 for mouse BAF3 cells to GI50 for wild type BCR/ABL (unknown origin) transfected in mouse BAF3 cells.

Sequence of Bcr/Abl fusion protein (Homo sapiens) (P00519 whole entry, looked up, the tested form may be a part): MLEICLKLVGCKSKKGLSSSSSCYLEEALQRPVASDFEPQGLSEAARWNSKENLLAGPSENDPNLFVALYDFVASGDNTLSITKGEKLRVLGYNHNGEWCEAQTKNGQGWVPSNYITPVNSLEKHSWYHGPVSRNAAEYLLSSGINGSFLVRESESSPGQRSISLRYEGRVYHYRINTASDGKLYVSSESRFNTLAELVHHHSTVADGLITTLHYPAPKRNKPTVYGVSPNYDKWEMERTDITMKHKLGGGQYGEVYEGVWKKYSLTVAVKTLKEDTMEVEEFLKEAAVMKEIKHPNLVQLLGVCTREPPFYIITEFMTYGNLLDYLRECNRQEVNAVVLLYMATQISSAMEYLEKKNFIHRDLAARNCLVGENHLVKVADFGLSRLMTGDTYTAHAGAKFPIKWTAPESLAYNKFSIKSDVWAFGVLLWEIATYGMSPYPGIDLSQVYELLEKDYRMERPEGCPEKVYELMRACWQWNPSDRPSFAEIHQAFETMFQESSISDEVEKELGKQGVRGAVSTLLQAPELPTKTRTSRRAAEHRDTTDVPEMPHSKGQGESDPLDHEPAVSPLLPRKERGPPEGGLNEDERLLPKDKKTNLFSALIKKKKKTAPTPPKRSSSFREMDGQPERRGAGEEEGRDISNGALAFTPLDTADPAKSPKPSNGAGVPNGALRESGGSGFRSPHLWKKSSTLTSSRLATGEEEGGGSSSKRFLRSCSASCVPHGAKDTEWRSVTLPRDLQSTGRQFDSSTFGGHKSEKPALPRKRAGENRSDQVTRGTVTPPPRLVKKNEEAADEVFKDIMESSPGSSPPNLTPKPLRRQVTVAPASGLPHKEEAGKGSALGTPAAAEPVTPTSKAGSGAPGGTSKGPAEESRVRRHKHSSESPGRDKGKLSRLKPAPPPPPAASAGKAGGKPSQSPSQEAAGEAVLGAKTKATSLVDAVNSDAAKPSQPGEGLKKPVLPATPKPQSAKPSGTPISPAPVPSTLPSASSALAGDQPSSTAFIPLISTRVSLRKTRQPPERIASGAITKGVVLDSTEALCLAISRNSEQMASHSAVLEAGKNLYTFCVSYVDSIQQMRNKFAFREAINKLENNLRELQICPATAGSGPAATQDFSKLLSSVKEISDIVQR
Sequence of Bcr/Abl fusion protein (Homo sapiens) (P11274 whole entry, looked up, the tested form may be a part): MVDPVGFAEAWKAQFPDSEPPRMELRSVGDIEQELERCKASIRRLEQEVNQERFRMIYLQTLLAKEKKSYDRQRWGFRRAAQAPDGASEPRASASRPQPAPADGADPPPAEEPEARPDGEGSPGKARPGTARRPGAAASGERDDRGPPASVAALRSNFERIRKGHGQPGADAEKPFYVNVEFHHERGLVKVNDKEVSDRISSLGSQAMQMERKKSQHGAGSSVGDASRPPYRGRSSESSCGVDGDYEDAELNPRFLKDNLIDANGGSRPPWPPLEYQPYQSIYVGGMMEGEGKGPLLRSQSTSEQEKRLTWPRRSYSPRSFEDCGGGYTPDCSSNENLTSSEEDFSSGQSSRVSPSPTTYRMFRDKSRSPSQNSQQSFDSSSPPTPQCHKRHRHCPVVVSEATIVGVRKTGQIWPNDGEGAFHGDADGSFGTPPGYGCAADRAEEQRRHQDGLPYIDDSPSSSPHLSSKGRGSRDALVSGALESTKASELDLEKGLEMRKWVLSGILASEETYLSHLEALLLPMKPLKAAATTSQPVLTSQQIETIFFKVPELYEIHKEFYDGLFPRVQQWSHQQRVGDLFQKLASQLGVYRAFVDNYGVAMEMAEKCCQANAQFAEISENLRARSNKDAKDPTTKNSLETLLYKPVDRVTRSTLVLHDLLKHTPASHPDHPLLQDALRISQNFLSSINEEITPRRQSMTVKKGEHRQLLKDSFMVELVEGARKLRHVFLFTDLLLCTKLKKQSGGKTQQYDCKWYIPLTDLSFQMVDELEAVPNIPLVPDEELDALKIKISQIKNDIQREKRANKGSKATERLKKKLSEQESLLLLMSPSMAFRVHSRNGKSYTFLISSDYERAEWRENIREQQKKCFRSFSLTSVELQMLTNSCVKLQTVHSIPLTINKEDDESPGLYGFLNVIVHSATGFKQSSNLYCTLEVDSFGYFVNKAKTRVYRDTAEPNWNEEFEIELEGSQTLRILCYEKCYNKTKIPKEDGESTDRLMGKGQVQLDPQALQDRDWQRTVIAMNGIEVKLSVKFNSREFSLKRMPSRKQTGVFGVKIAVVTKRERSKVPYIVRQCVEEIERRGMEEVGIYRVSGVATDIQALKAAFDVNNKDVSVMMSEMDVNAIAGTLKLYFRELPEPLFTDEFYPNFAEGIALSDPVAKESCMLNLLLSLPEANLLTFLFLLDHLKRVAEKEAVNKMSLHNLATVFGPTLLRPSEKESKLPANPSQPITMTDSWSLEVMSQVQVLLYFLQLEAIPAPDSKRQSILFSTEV

Consider `O=C(CCSc1ccc2c(/C=C/c3ccccn3)n[nH]c2c1)NCc1cccc(C(F)(F)F)c1`, for which the values for the GI50 in series [1] and in series [2] were 7050 nM and 3390 nM, respectively. Besides, the GI50 (as a rule, the concentration giving 50% growth inhibition) at 72 h in series [3] came to 8030 nM.
Regarding `O=C(CCSc1ccc2c(/C=C/c3ccccn3)n[nH]c2c1)Nc1ccc(Cl)c(C(F)(F)F)c1`, the figures for the GI50 in [1] and in series [2] were 2670 nM and 2710 nM, respectively. In series [3], the GI50 at 72 h was > 10000 nM.
`Cc1ccc(NC(=O)c2ccc(CN3CCN(C)CC3)cc2)cc1Nc1nccc(-c2cccnc2)n1` [IMATINIB]: the GI50 was > 10000 nM with OCI-AML2; 310 nM in the series with KU812 cell line; > 10000 nM in the series on U-937; > 10000 nM in the series on MEC1; 250 nM with K562; > 10000 nM in the series on HL-60. This compound yielded a GI50 in the series on MEG-01 of 280 nM. Also, the GI50 at 72 h in series [4] and in series [3] was > 10000 nM each time. Besides, the Activity with BaF3 came to 3.36 g.
`O=C(CCSc1ccc2c(/C=C/c3ccccn3)n[nH]c2c1)Nc1ccc(CN2CCOCC2)c(C(F)(F)F)c1`: the concentration for 50% growth inhibition (GI50) in series [1] is 210 nM; in [2], 160 nM. This compound also returned a GI50 at 72 h in series [3] of 3970 nM.
As for `O=C(CCSc1ccc2c(/C=C/c3ccccn3)n[nH]c2c1)Nc1cccc(C(F)(F)F)c1`, the 50% growth inhibitory concentration (GI50) in [1] was found to be 280 nM; in series [2], 900 nM. Further, halving of growth in series [3] (GI50 at 72 h) required 2300 nM.
In the case of `CN1CCN(Cc2ccc(NC(=O)CCSc3ccc4c(-c5cccnc5)n[nH]c4c3)cc2C(F)(F)F)CC1`, the GI50 in series [1] was determined as 58 nM; in series [2] it was 70 nM. The compound further registered a GI50 at 72 h in series [3] of 2650 nM.
For `O=C(CCSc1ccc2c(/C=C/c3ccccn3)n[nH]c2c1)Nc1cccc(F)c1`, in that order: 1990 nM, 1510 nM and 6590 nM.
The like results for `COc1cccc(NC(=O)CCSc2ccc3c(/C=C/c4ccccn4)n[nH]c3c2)c1` were, in that order, 3210 nM, 3220 nM and 3840 nM.
Regarding `CNC(=O)c1ccccc1Sc1ccc2c(/C=C/c3ccccn3)n[nH]c2c1` [AXITINIB], the GI50 with OCI-AML2 turned out to be 2360 nM; with KU812 cell line, 500 nM; in the series with U-937, 1980 nM; in the series on MEC1 it was 1540 nM; in the series on K562, 940 nM; in the series with HL-60, 6780 nM. In the series with MEG-01, this compound returned a GI50 of 970 nM. The GI50 at 72 h is > 10000 nM in [4] and 1640 nM in series [3].
Consider `CN1CCN(Cc2ccc(C(=O)NCCCSc3ccc4c(/C=C/c5ccccn5)n[nH]c4c3)cc2C(F)(F)F)CC1`, for which the GI50 in series [1] was determined as 330 nM; in [2] it was 22 nM. The compound further yielded a concentration for 50% growth inhibition (GI50) at 72 h in series [3] of 4400 nM.
For `CN1CCN(Cc2ccc(NC(=O)NCCSc3ccc4c(/C=C/c5ccccn5)n[nH]c4c3)cc2C(F)(F)F)CC1`, in that order: 240 nM, 180 nM and 3100 nM.
With `Cc1n[nH]c2cc(SCCC(=O)Nc3ccc(CN4CCN(C)CC4)c(C(F)(F)F)c3)ccc12`, the GI50 is 170 nM in series [1] and 330 nM in series [2]. Also, the concentration for 50% growth inhibition (GI50) at 72 h in series [3] is 3900 nM.
In the case of `CC1CCN(Cc2ccc(NC(=O)CCSc3ccc4c(/C=C/c5ccccn5)n[nH]c4c3)cc2C(F)(F)F)CC1`, the values for the 50% growth inhibitory concentration (GI50) in series [1] and in series [2] were 1750 nM and 1980 nM, respectively. In [3], the GI50 at 72 h is 4170 nM.
For `CN1CCN(c2cccc(NC(=O)CCSc3ccc4c(/C=C/c5ccccn5)n[nH]c4c3)c2)CC1`, in that order: 8180 nM, 8240 nM and > 10000 nM.
The like results for `O=C(CCSc1ccc2c(/C=C/c3ccccn3)n[nH]c2c1)Nc1ccccc1` were, in that order, 510 nM, 500 nM and 690 nM.
For `O=C(NCCCSc1ccc2c(/C=C/c3ccccn3)n[nH]c2c1)c1cccc(C(F)(F)F)c1`, the GI50 in series [1] is 650 nM; in [2], 500 nM. In addition, the GI50 at 72 h in series [3] came out at 980 nM.
For `Cc1ccc(-c2n[nH]c3cc(SCCC(=O)Nc4ccc(CN5CCN(C)CC5)c(C(F)(F)F)c4)ccc23)cn1`, the concentration for 50% growth inhibition (GI50) in [1] worked out at 49 nM; in series [2] it was 91 nM. The same compound registered a GI50 at 72 h in series [3] of 1180 nM.
For `CN1CCN(Cc2ccc(NC(=O)CCSc3ccc4c(-c5ccccc5)n[nH]c4c3)cc2C(F)(F)F)CC1`, in that order: 110 nM, 32 nM and 600 nM.
The like results for `CN(C)CCN(C)Cc1ccc(NC(=O)CCSc2ccc3c(/C=C/c4ccccn4)n[nH]c3c2)cc1C(F)(F)F` were, in that order, 110 nM, 110 nM and 1850 nM.
For `O=C(CCSc1ccc2c(/C=C/c3ccccn3)n[nH]c2c1)Nc1cccc(Cl)c1`, in that order: 2910 nM, 1560 nM and 9350 nM.
Consider `O=C(CCSc1ccc2c(/C=C/c3ccccn3)n[nH]c2c1)Nc1ccc(F)c(C(F)(F)F)c1`, for which the results for the GI50 in series [1] and in series [2] were 120 nM and 300 nM, respectively. This compound also displayed a GI50 at 72 h in series [3] of 610 nM.
The like results for `O=C(CCSc1ccc2c(/C=C/c3ccccn3)n[nH]c2c1)Nc1ccc(CN2CCCC2)c(C(F)(F)F)c1` were, in that order, 120 nM, 150 nM and 4000 nM.
For `Cc1ccc(NC(=O)CCSc2ccc3c(/C=C/c4ccccn4)n[nH]c3c2)cc1C(F)(F)F`, the concentration for 50% growth inhibition (GI50) turned out to be 88 nM in series [1] and 160 nM in [2]. The same compound gave a GI50 at 72 h in [3] of 530 nM.
The like results for `O=C(NCCSc1ccc2c(/C=C/c3ccccn3)n[nH]c2c1)Nc1cccc(C(F)(F)F)c1` were, in that order, 2060 nM, 2740 nM and 3000 nM.
Consider `COc1ccc(NC(=O)CCSc2ccc3c(/C=C/c4ccccn4)n[nH]c3c2)cc1C(F)(F)F`, for which the GI50 in series [1] amounted to 860 nM; in series [2] it was 590 nM. In addition, the GI50 at 72 h in series [3] is > 10000 nM.
For `CN1CCN(Cc2ccc(C(=O)NCCSc3ccc4c(/C=C/c5ccccn5)n[nH]c4c3)cc2C(F)(F)F)CC1`, in that order: 930 nM, 750 nM and 4800 nM.
The like results for `O=C(NCCSc1ccc2c(/C=C/c3ccccn3)n[nH]c2c1)c1cccc(C(F)(F)F)c1` were, in that order, 1620 nM, 2720 nM and 1500 nM.
On to `Cc1ccc(NC(=O)CCSc2ccc3c(/C=C/c4ccccn4)n[nH]c3c2)cc1`, for which the GI50 in [1] was 4490 nM; in series [2], 2870 nM. In addition, the GI50 at 72 h in series [3] was > 10000 nM.
For the compound `CN1CCN(Cc2ccc(NC(=O)CCSc3ccc4c(-c5cnn(C)c5)n[nH]c4c3)cc2C(F)(F)F)CC1`, the GI50 was 20 nM in series [1] and 15 nM in series [2]. Moreover, the GI50 at 72 h in series [3] is 1400 nM.
The like results for `CN1CCN(Cc2ccc(NC(=O)CCSc3ccc4c(-c5ccncc5)n[nH]c4c3)cc2C(F)(F)F)CC1` were, in that order, 18 nM, 38 nM and 1060 nM.
Take `CN(C)c1cccc(NC(=O)CCSc2ccc3c(/C=C/c4ccccn4)n[nH]c3c2)c1`: the 50% growth inhibitory concentration (GI50) worked out at 5520 nM in series [1] and 9670 nM in series [2]. Also, the GI50 at 72 h in series [3] is > 10000 nM.
Turning to `CNC(=O)CCSc1ccc2c(/C=C/c3ccccn3)n[nH]c2c1`, the GI50 in [1] and in series [2] was > 10000 nM throughout. The GI50 at 72 h in series [3] was > 10000 nM.
With `CCN1CCN(Cc2ccc(NC(=O)CCSc3ccc4c(/C=C/c5ccccn5)n[nH]c4c3)cc2C(F)(F)F)CC1`, the RatioGI50 in [5] and in [6] was 200 throughout. Also, the GI50 in [1] and in series [2] was 4 nM throughout. The GI50 at 72 h in series [3] is 840 nM.
For `Cc1cccc(NC(=O)CCSc2ccc3c(/C=C/c4ccccn4)n[nH]c3c2)c1`, the results for the GI50 in series [1] and in series [2] were 4030 nM and 3150 nM, respectively. The GI50 at 72 h in [3] was > 10000 nM.

Source of the values: ChEMBL document CHEMBL4382204 (Eur J Med Chem, 2018).
